Experimental data taken from patent publication US20260234159A1, “SMALL MOLECULE TREATMENT OF FATTY LIVER DISEASE AND HCC” (SCANDIEDGE THERAPEUTICS AB, priority 2023, published 2026).

How the values were obtained:
Type in all cases: cell-based, human
[1] = system: HepG2 cells; assay: MTT cell viability / IC50 in growth media; details: for IC50: Homo sapiens, 48 h, HepG2, treatment for 2 days; for cell viability of HepG2 cells: especially in cancerous media
[2] = MTT cell viability / IC50 in growth media; details: human, HepG2 cells, 10 μM; for viability at 2 days, 10 µM: treatment for 2 days; for viability at 4 day, 10 µM: day 4
[3] = system: c-Myc; assay: Nuclear protein western blot, c-Myc; details: 10 μM, 2 days
Method: (§1) HepG2 cells were seeded into a 6-well plate at 400,000 cells per well. After treatment with 10 μM of JNK-IN-5A and its derivatives for two days, lysates were harvested with CelLytic M (C2978, Sigma-Aldrich). 20 μg lysate was prepared with 2× Laemmli Sample Buffer (1610737, Biorad). SDS PAGE were performed using Mini-PROTEAN® TGX™ Precast Gels (Bio-Rad) and transferred using Trans-Blot® Turbo™ Transfer System (Bio-Rad). Primary antibody, PARP (95425, Cell signalling), Caspase 3 (ab32042, abcam), Bcl-2 (ab182858), STAT1 (HPA000982, Merk), PKL (06653, Sigma), PKM (4053S, Cell signalling), GAPDH (ab8245, abcam), P53 (ab32389, abcam), p21 (ab109199, abcam), p-S349 p62 (ab211324, abcam), p62 (ab109012, abcam), c-Myc (ab32072, abcam), GPX4 (ab125066, abcam), MMP9 (MA5-32705, Invitrogen), β-actin (ab8227, abcam), and α-tubulin (ab7291, abcam) were blotted overnight and Goat Anti-Rabbit HRP (ab205718) and goat anti-mouse IgG-HRP (sc2005, Santa Cruz Biotechnology, Inc.) were blotted for secondary antibody for one hour. ImageQuantTMLAS 500 (29-0050-63, GE) was used to detect protein bands.

[4] = system: HepG2 cells; assay: DAPI and PI staining for necrotic cell death; details: 10 μM, 2 days
Method: HepG2 cells were treated with 10 μM of the JNK-IN-5A derivatives for 2 days and cells were stained with DAPI (Blue) and PI (Red) for 30 min, at live cells. PI positive necrotic cells were counted and plotted.

[5] = system: p53; assay: Nuclear protein western blot, p53; details: 10 μM, 2 days; compared to sorafenib and regorafenib
Method: as §1

[6] = system: HepG2 cells; assay: RNA sequencing, GSEA and PROGENy pathway analysis
Method: RNA samples for RNA sequencing were extracted with RNeasy Plus Mini Kit (74134, QIAGEN). RIN score of total RNA samples was measured using RNA 6000 Nano kit (5067-1511, Agilent). 2100 Bioanalyzer Instrument (G2939BA, Agilent) was used for RIN score test using electrophoresis. Samples with a […] were submitted to SZA Omics, Istanbul for RNA sequencing analysis.
The quality, quantity, and RNA integrity number (RIN) of the samples were assessed with NanoDrop (Thermo Fisher, USA), and Bioanalyzer (2100, Agilent Technology, USA). For the RNA samples, the ratio of absorbance at 260 and 280 nm (A260/280) of […], A260/230 of 2.0-2.2, and RIN>8.0 are acceptable. All samples passed the quality control.
The Illumina Stranded Total RNA Prep, Ligation with Ribo-Zero Plus kit was used for the construction of NGS libraries from the samples with acceptable quality parameters. In short, RNA samples were sequenced with 2×100 paired-end reads by the NovaSeq 6000 system. Raw sequencing data (.bcl) was demultiplexed and converted to FASTQ files with DRAGEN Software (v3.9.5). The data was delivered in FASTQ format using Illumina 1.8 quality scores.
The quality of FASTQ files was assessed by FastQC (v0.11.9) software to ensure the quality of every sequenced sample. Kallisto (v0.48.0)16 was used to quantify the count and transcripts per million (TPM) values of transcripts based on the Homo sapiens reference cDNA (version GRCh38, Ensembl release 110). The transcript read counts and TPM values were assembled to gene level using the R package tximport (v1.28.0), with only protein-coding transcripts and genes included. The lowly expressed genes with an average count below 5 were filtered out, resulting in a total of 14,592 genes for the downstream analysis.
Differential expression analysis was conducted using the R package DESeq2 (v1.40.2) followed by the Benjamini-Hochberg procedure to correct p-values. […]

[7] = system: PARP; assay: Western blot, cleaved PARP; details: 10 μM, 2 days
Method: as §1

[8] = system: GPX4; assay: Western blot, GPX4; details: compared to the control
Method: as §1

[9] = system: HepG2 cells; assay: LDH cytotoxicity assay, time dependent; details: 10 μM, up to 4 days
Method: HepG2 cells were maintained and used with RPMI 1640 (R2405, Sigma-Aldrich) supplemented with 10% fetal bovine serum (F7524, Sigma-Aldrich), 1% P/S (P4333, Sigma-Aldrich). 20,000 cells per well of HepG2 cells were seeded into a 96-well plate and triplicated for MTT assay and LDH assay. Cell viability was measured by MTT assay (M6494, ThermoFisher) and cytotoxicity was measured by LDH assay kit (ab65393, abcam) by following manufacturer's instructions. Optical density (O.D) was numerated using a microplate reader (Hidex Sense Meta Plus).

N#Cc1c(NC(=O)c2cccc3ccccc23)sc2c1CCCC2 [JNK-IN-5A, N-(3-cyano-4,5,6,7-tetrahydrobenzo[b]thiophen-2-yl)-1-naphthamide]
dose dependence of cell viability ([1]; 30 μM to 30 nM): non-dose-dependent, linear reduction in cell viability | IC50 ([1]; 30 μM to 30 nM): 36.4 µM | viability at 2 days, 10 µM [2]: 59.7% | nuclear c-Myc expression [3]: significantly reduced

COc1ccc(C(=O)Nc2sc3c(c2C#N)CCCCC3)cc1OC [PKL-A135, N-(3-cyano-5,6,7,8-tetrahydro-4H-cyclohepta[b]thiophen-2-yl)-3,4-dimethoxy-benzamide]
necrotic cell death (PI staining) [4]: significantly induced necrotic cell death | IC50 ([1]; 30 μM to 30 nM): 12 µM | cell viability of HepG2 cells [1]: significantly low cell viability | viability at 4 day, 10 µM [2]: 15.9% | viability at 2 days, 10 µM [2]: 43.1% | nuclear-localized p53 [5]: significant increase | inhibition of cell cycle-related pathways (E2F targets, G2M checkpoint), GSEA [6]: most potent inhibitor | p53 pathways activity (PROGENy) [6]: significantly activated | increase in cleaved PARP vs untreated control [7]: 78.31 times | GPX4 expression levels [8]: 0.58 times | necrotic cell death (LDH) [9]: pronounced necrotic cell death from day 1 to day 4

N#Cc1c(NC(=O)c2cccc3ccccc23)sc2c1CCN(C(=O)Nc1ccccc1OC(F)(F)F)C2 [PKL-A159]
IC50 ([1]; 30 μM to 30 nM): 9.72 µM | viability at 2 days, 10 µM [2]: 61.6%

N#Cc1c(NC(=O)c2cccc3ccccc23)sc2c1CCN(CC(=O)Nc1cccc(Br)c1)C2 [PKL-B171]
necrotic cell death (PI staining) [4]: significantly induced necrotic cell death | IC50 ([1]; 30 μM to 30 nM): 21.8 µM | cell viability of HepG2 cells [1]: particularly low cell viability | viability at 4 day, 10 µM [2]: 1.1% | viability at 2 days, 10 µM [2]: 67.4% | nuclear c-Myc expression [3]: most substantial decrease | nuclear-localized p53 [5]: significant increase | p53 pathways activity (PROGENy) [6]: significantly activated | increase in cleaved PARP vs untreated control [7]: 87.97 times | GPX4 expression levels [8]: 0.88 times | necrotic cell death (LDH) [9]: pronounced late necrotic cell death from day 3 to 4
